Source: PMC5218480 (PLoS ONE, 2017)

Test system: MV-4-11 cells
Test: Gene expression microarray analysis (Affymetrix PrimeView) and GSEA
Assay type: cell-based, human
Design: RFU PODN (11730768_x_at) / Fold change /veh PODN (11730768_x_at) / RFU LINC00158 (11744669_a_at) / Fold change /veh LINC00158 (11744669_a_at) / RFU DUSP10 (11751237_a_at) / Fold change /veh DUSP10 (11751237_a_at) / RFU ID3 (11757404_x_at) / Fold change /veh ID3 (11757404_x_at) / RFU PLEKHG5 (11737974_s_at) / Fold change /veh PLEKHG5 (11737974_s_at) / RFU LRRC4B (11730491_at) / Fold change /veh LRRC4B (11730491_at) / RFU GIMAP4 (11747438_a_at) / Fold change /veh GIMAP4 (11747438_a_at) / RFU KRT8 (11758183_x_at) / Fold change /veh KRT8 (11758183_x_at) / RFU CNN1 (11734310_a_at) / Fold change /veh CNN1 (11734310_a_at) / RFU VPS37D (11726825_at) / Fold change /veh VPS37D (11726825_at) / RFU C10orf10 (11716522_x_at) / Fold change /veh C10orf10 (11716522_x_at) / RFU KIR2DL2 /// KIR2DL4 /// KIR2DL5A /// KIR2DL5B /// KIR2DS1 /// KIR2DS2 /// KIR2DS3 /// KIR2DS4 /// KIR3DL3 /// KIR3DL3 /// KIR3DS1 (11738374_at) / Fold change /veh KIR2DL2 /// KIR2DL4 /// KIR2DL5A /// KIR2DL5B /// KIR2DS1 /// KIR2DS2 /// KIR2DS3 /// KIR2DS4 /// KIR3DL3 /// KIR3DL3 /// KIR3DS1 (11738374_at) / RFU C1QL1 (11718748_at) / Fold change /veh C1QL1 (11718748_at) / RFU TMPRSS4 (11747572_a_at) / Fold change /veh TMPRSS4 (11747572_a_at) / RFU HAMP (11756126_x_at) / Fold change /veh HAMP (11756126_x_at) / RFU RNFT2 (11725882_a_at) / Fold change /veh RNFT2 (11725882_a_at) / RFU NR4A2 (11747474_a_at) / Fold change /veh NR4A2 (11747474_a_at) / RFU ABCC12 (11746883_a_at) / Fold change /veh ABCC12 (11746883_a_at) / RFU TMEM136 (11760407_x_at) / Fold change /veh TMEM136 (11760407_x_at) / RFU CLDN22 /// WWC2 (11732394_at) / Fold change /veh CLDN22 /// WWC2 (11732394_at) / RFU HLA-DPB1 (11760878_x_at) / Fold change /veh HLA-DPB1 (11760878_x_at) / RFU SPINT1 (11716480_a_at) / Fold change /veh SPINT1 (11716480_a_at) / RFU GAP43 (11754022_s_at) / Fold change /veh GAP43 (11754022_s_at) / RFU A4GNT (11735810_at) / Fold change /veh A4GNT (11735810_at) / RFU PRB3 (11715151_x_at) / Fold change /veh PRB3 (11715151_x_at) / RFU TUBB4B (11761932_at) / Fold change /veh TUBB4B (11761932_at) / RFU CAPN14 (11732068_a_at) / Fold change /veh CAPN14 (11732068_a_at) / RFU TMCC2 (11721928_a_at) / Fold change /veh TMCC2 (11721928_a_at) / RFU IRGQ (11745062_a_at) / Fold change /veh IRGQ (11745062_a_at) / RFU FAM174B (11720279_a_at) / Fold change /veh FAM174B (11720279_a_at) / RFU TMPRSS4 (11748680_a_at) / Fold change /veh TMPRSS4 (11748680_a_at) / RFU FAM212B (11763350_a_at) / Fold change /veh FAM212B (11763350_a_at) / RFU PLEKHG5 (11743358_a_at) / Fold change /veh PLEKHG5 (11743358_a_at) / RFU ZSCAN30 (11745921_a_at) / Fold change /veh ZSCAN30 (11745921_a_at) / RFU CMKLR1 (11741424_a_at) / Fold change /veh CMKLR1 (11741424_a_at) / RFU LOC101060620 /// MAPK8IP1 (11723275_at) / Fold change /veh LOC101060620 /// MAPK8IP1 (11723275_at) / RFU SPTSSB (11747773_x_at) / Fold change /veh SPTSSB (11747773_x_at) / RFU PRSS12 (11739890_at) / Fold change /veh PRSS12 (11739890_at) / RFU BIN1 (11741810_x_at) / Fold change /veh BIN1 (11741810_x_at) / RFU WNT11 (11732464_a_at) / Fold change /veh WNT11 (11732464_a_at) / RFU C10orf10 (11716521_a_at) / Fold change /veh C10orf10 (11716521_a_at) / RFU C5orf56 (11738089_at) / Fold change /veh C5orf56 (11738089_at) / RFU CYB561 (11721691_x_at) / Fold change /veh CYB561 (11721691_x_at) / RFU ANKRD19P (11752326_a_at) / Fold change /veh ANKRD19P (11752326_a_at) / RFU OR2T12 /// OR2T33 /// OR2T8 (11738714_s_at) / Fold change /veh OR2T12 /// OR2T33 /// OR2T8 (11738714_s_at) / RFU VCAN (11748164_a_at) / Fold change /veh VCAN (11748164_a_at) / RFU JSRP1 (11732532_at) / Fold change /veh JSRP1 (11732532_at) / RFU KRTAP10-11 (11738290_x_at) / Fold change /veh KRTAP10-11 (11738290_x_at) / RFU MYO3A (11730013_a_at) / Fold change /veh MYO3A (11730013_a_at) / RFU EBF3 (11725865_a_at) / Fold change /veh EBF3 (11725865_a_at) / RFU CAMK2N1 (11719241_x_at) / Fold change /veh CAMK2N1 (11719241_x_at) / RFU C5orf56 (11738088_a_at) / Fold change /veh C5orf56 (11738088_a_at) / RFU OLFML3 (11715873_a_at) / Fold change /veh OLFML3 (11715873_a_at) / RFU LOC100653217 /// NTM (11731650_a_at) / Fold change /veh LOC100653217 /// NTM (11731650_a_at) / RFU MAPK11 (11762145_a_at) / Fold change /veh MAPK11 (11762145_a_at) / RFU FIZ1 (11724087_x_at) / Fold change /veh FIZ1 (11724087_x_at) / RFU OASL (11726364_x_at) / Fold change /veh OASL (11726364_x_at) / RFU SOX15 (11748057_x_at) / Fold change /veh SOX15 (11748057_x_at) / RFU CD79A (11719716_a_at) / Fold change /veh CD79A (11719716_a_at) / RFU HIST1H1D (11736915_at) / Fold change /veh HIST1H1D (11736915_at) / RFU CASKIN2 (11723855_a_at) / Fold change /veh CASKIN2 (11723855_a_at) / RFU LOC730098 (11760151_x_at) / Fold change /veh LOC730098 (11760151_x_at) / RFU OR4N2 (11742367_at) / Fold change /veh OR4N2 (11742367_at) / RFU PRRT2 (11749266_a_at) / Fold change /veh PRRT2 (11749266_a_at) / RFU SNX32 (11753110_a_at) / Fold change /veh SNX32 (11753110_a_at) / RFU CDHR5 (11726645_a_at) / Fold change /veh CDHR5 (11726645_a_at) / RFU RCAN1 (11760418_a_at) / Fold change /veh RCAN1 (11760418_a_at) / RFU FAM167A (11723789_a_at) / Fold change /veh FAM167A (11723789_a_at) / RFU FAM26E (11764081_at) / Fold change /veh FAM26E (11764081_at) / RFU ISYNA1 (11749810_s_at) / Fold change /veh ISYNA1 (11749810_s_at) / RFU ACY1 (11761880_at) / Fold change /veh ACY1 (11761880_at) / RFU 11764098_at / Fold change /veh 11764098_at / RFU SAMD14 (11745864_x_at) / Fold change /veh SAMD14 (11745864_x_at) / RFU NPB (11741838_a_at) / Fold change /veh NPB (11741838_a_at) / RFU TMPRSS6 (11731388_a_at) / Fold change /veh TMPRSS6 (11731388_a_at) / RFU KRTAP10-2 (11738614_at) / Fold change /veh KRTAP10-2 (11738614_at) / RFU ARHGAP8 /// PRR5-ARHGAP8 (11727945_x_at) / Fold change /veh ARHGAP8 /// PRR5-ARHGAP8 (11727945_x_at) / RFU KRTAP5-7 /// NADSYN1 (11734609_at) / Fold change /veh KRTAP5-7 /// NADSYN1 (11734609_at) / RFU RASL12 (11751679_a_at) / Fold change /veh RASL12 (11751679_a_at) / RFU CDKN2B (11736163_a_at) / Fold change /veh CDKN2B (11736163_a_at) / RFU PRF1 (11729649_at) / Fold change /veh PRF1 (11729649_at) / RFU, ZNF638 /// ZNF638-IT1 / Fold change vs veh, ZNF638 /// ZNF638-IT1 / RFU, PANK3 / Fold change vs veh, PANK3 / RFU, SH3YL1 / Fold change vs veh, SH3YL1 / RFU, ZEB2 / Fold change vs veh, ZEB2 / RFU, NRIP1 / Fold change vs veh, NRIP1 / RFU, PTTG1IP / Fold change vs veh, PTTG1IP / RFU, CAPN2 / Fold change vs veh, CAPN2 / RFU, MED14 / Fold change vs veh, MED14 / RFU, SNORA58 / Fold change vs veh, SNORA58 / RFU, C1orf63 / Fold change vs veh, C1orf63 / RFU, LRRFIP1 / Fold change vs veh, LRRFIP1 / RFU, NDUFAF7 / Fold change vs veh, NDUFAF7 / RFU, SLC12A2 / Fold change vs veh, SLC12A2 / RFU, IBTK / Fold change vs veh, IBTK / RFU, ESF1 / Fold change vs veh, ESF1 / Fold change vs veh, TMEM50B / RFU, TAOK1 / Fold change vs veh, TAOK1 / RFU, ACBD3 / Fold change vs veh, ACBD3 / RFU, TMA16 / Fold change vs veh, TMA16 / RFU, RWDD3 / Fold change vs veh, RWDD3 / RFU, BCAT1 / Fold change vs veh, BCAT1 / RFU, EDEM3 / Fold change vs veh, EDEM3 / RFU, TMEM33 / Fold change vs veh, TMEM33 / RFU, WDR75 / Fold change vs veh, WDR75 / RFU, AHCTF1 / Fold change vs veh, AHCTF1 / RFU, TFRC / Fold change vs veh, TFRC / RFU, ZDHHC17 / Fold change vs veh, ZDHHC17 / RFU, NOM1 / Fold change vs veh, NOM1 / RFU, ARL8B / Fold change vs veh, ARL8B / RFU, ZBTB11 / Fold change vs veh, ZBTB11 / RFU, TAMM41 / Fold change vs veh, TAMM41 / RFU, KIAA1704 /// LOC100996395 / Fold change vs veh, KIAA1704 /// LOC100996395 / RFU, ING1 / Fold change vs veh, ING1 / RFU, TRMT61B / Fold change vs veh, TRMT61B / RFU, FUBP3 / Fold change vs veh, FUBP3 / RFU, TP53 / Fold change vs veh, TP53 / RFU, TNKS2 / Fold change vs veh, TNKS2 / RFU, ZFP14 / Fold change vs veh, ZFP14 / RFU, ACTR2 / Fold change vs veh, ACTR2 / RFU, PPP3R1 / Fold change vs veh, PPP3R1 / RFU, PIK3R1 / Fold change vs veh, PIK3R1 / RFU, HNRNPA1 / Fold change vs veh, HNRNPA1 / RFU, RNF170 / Fold change vs veh, RNF170 / RFU, ZNF28 / Fold change vs veh, ZNF28 / RFU, RNGTT / Fold change vs veh, RNGTT / RFU, OGT / Fold change vs veh, OGT / RFU, BRD1 / Fold change vs veh, BRD1 / RFU, MARS / Fold change vs veh, MARS / RFU, ZNF655 / Fold change vs veh, ZNF655 / RFU, FAHD1 / Fold change vs veh, FAHD1 / RFU, BDP1 / Fold change vs veh, BDP1 / RFU, LRRCC1 / Fold change vs veh, LRRCC1 / RFU, ARID1A / Fold change vs veh, ARID1A / RFU, ZNF146 / Fold change vs veh, ZNF146 / RFU, ZNF330 / Fold change vs veh, ZNF330 / RFU, GPN3 / Fold change vs veh, GPN3 / RFU, C9orf123 / Fold change vs veh, C9orf123 / RFU, N4BP2L2 / Fold change vs veh, N4BP2L2 / RFU, ARFIP1 / Fold change vs veh, ARFIP1 / RFU, FAM179B / Fold change vs veh, FAM179B / RFU, BCL10 / Fold change vs veh, BCL10 / RFU, UHRF1BP1L / Fold change vs veh, UHRF1BP1L / RFU, BET1 / Fold change vs veh, BET1 / RFU, CNOT2 / Fold change vs veh, CNOT2 / RFU, ZNF268 / Fold change vs veh, ZNF268 / Fold change vs veh, ZNF507 / RFU, DGCR2 / Fold change vs veh, DGCR2 / RFU, WDSUB1 / Fold change vs veh, WDSUB1 / Fold change vs veh, HSP90B1 /// MIR3652 / RFU, ADSS / Fold change vs veh, ADSS / RFU, GK / Fold change vs veh, GK / RFU, ZNF148 / Fold change vs veh, ZNF148 / RFU, TAF9 / Fold change vs veh, TAF9 / RFU, SLC1A5 / Fold change vs veh, SLC1A5 / RFU, SLMO2 / Fold change vs veh, SLMO2 / RFU, ABCC4 / Fold change vs veh, ABCC4 / RFU, LOC101060439 /// RAP1B / Fold change vs veh, LOC101060439 /// RAP1B / RFU, RFX7 / Fold change vs veh, RFX7 / RFU, GTPBP10 / Fold change vs veh, GTPBP10 / RFU, CNEP1R1 / Fold change vs veh, CNEP1R1 / RFU, BIVM-ERCC5 /// ERCC5 / Fold change vs veh, BIVM-ERCC5 /// ERCC5 / RFU, ILF3 / Fold change vs veh, ILF3 / RFU 11762660_at / Fold change /veh 11762660_at / RFU VCAN (11757783_s_at) / Fold change /veh VCAN (11757783_s_at) / RFU DDX43 (11728927_at) / Fold change /veh DDX43 (11728927_at) / RFU KRT8 (11758188_x_at) / Fold change /veh KRT8 (11758188_x_at) / RFU NKD1 (11759106_at) / Fold change /veh NKD1 (11759106_at) / RFU SRD5A1 (11742802_a_at) / Fold change /veh SRD5A1 (11742802_a_at) / RFU TPSAB1 /// TPSB2 (11721975_s_at) / Fold change /veh TPSAB1 /// TPSB2 (11721975_s_at) / RFU GSTM3 (11746129_a_at) / Fold change /veh GSTM3 (11746129_a_at) / RFU IL23R (11737362_x_at) / Fold change /veh IL23R (11737362_x_at) / RFU TMEM51 (11727254_a_at) / Fold change /veh TMEM51 (11727254_a_at) / RFU PIWIL2 (11732686_x_at) / Fold change /veh PIWIL2 (11732686_x_at) / RFU ORM1 (11744905_x_at) / Fold change /veh ORM1 (11744905_x_at) / RFU CCDC152 (11743942_at) / Fold change /veh CCDC152 (11743942_at) / RFU ECM1 (11717891_a_at) / Fold change /veh ECM1 (11717891_a_at) / RFU IL23R (11748794_a_at) / Fold change /veh IL23R (11748794_a_at) / RFU TNFAIP8L3 (11732012_x_at) / Fold change /veh TNFAIP8L3 (11732012_x_at) / RFU MBOAT4 (11741988_at) / Fold change /veh MBOAT4 (11741988_at) / RFU 11764193_at / Fold change /veh 11764193_at / RFU TMEM53 (11763286_at) / Fold change /veh TMEM53 (11763286_at) / RFU MAGEB2 (11727129_at) / Fold change /veh MAGEB2 (11727129_at) / RFU TMEM200A (11744735_a_at) / Fold change /veh TMEM200A (11744735_a_at) / RFU CCDC152 (11751479_a_at) / Fold change /veh CCDC152 (11751479_a_at) / RFU FAM211A (11726209_a_at) / Fold change /veh FAM211A (11726209_a_at) / RFU RGS16 (11746705_a_at) / Fold change /veh RGS16 (11746705_a_at) / RFU VCAN (11755009_s_at) / Fold change /veh VCAN (11755009_s_at) / RFU RHOB (11743442_s_at) / Fold change /veh RHOB (11743442_s_at) / RFU RGS16 (11720943_a_at) / Fold change /veh RGS16 (11720943_a_at) / RFU RGS16 (11720944_at) / Fold change /veh RGS16 (11720944_at) / RFU, VPS4B / Fold change vs veh, VPS4B / RFU, CREB1 / Fold change vs veh, CREB1 / RFU, DNAJC13 / Fold change vs veh, DNAJC13 / RFU, GNAQ / Fold change vs veh, GNAQ / RFU, CDK5R1 / Fold change vs veh, CDK5R1 / RFU, ZRANB3 / Fold change vs veh, ZRANB3 / RFU, CUL4A / Fold change vs veh, CUL4A / RFU, CCNY / Fold change vs veh, CCNY / RFU, UFL1 / Fold change vs veh, UFL1 / RFU, COG3 / Fold change vs veh, COG3 / RFU, DIAPH2 / Fold change vs veh, DIAPH2 / RFU, SKA2 / Fold change vs veh, SKA2 / RFU, AFF3 / Fold change vs veh, AFF3 / RFU, LMF1 / Fold change vs veh, LMF1 / RFU, IPO11 / Fold change vs veh, IPO11 / RFU, DFFB / Fold change vs veh, DFFB / RFU, FOXP1 / Fold change vs veh, FOXP1 / RFU, CARD8 / Fold change vs veh, CARD8 / RFU, STRN3 / Fold change vs veh, STRN3 / RFU, ADK / Fold change vs veh, ADK / RFU, RASSF2 / Fold change vs veh, RASSF2 / RFU, WIPF1 / Fold change vs veh, WIPF1 / RFU, LARP1B / Fold change vs veh, LARP1B / RFU, RASA1 / Fold change vs veh, RASA1 / RFU, RB1 / Fold change vs veh, RB1 / RFU, PPFIA1 / Fold change vs veh, PPFIA1 / RFU, MAT2A / Fold change vs veh, MAT2A / RFU, CCT5 / Fold change vs veh, CCT5 / RFU, WDR92 / Fold change vs veh, WDR92 / RFU, CUX1 / Fold change vs veh, CUX1 / RFU, TTC7A / Fold change vs veh, TTC7A / RFU, TMEM135 / Fold change vs veh, TMEM135 / RFU, DEPTOR / Fold change vs veh, DEPTOR / RFU, CPM / Fold change vs veh, CPM / RFU, DNAJB6 / Fold change vs veh, DNAJB6 / RFU, CACNA2D3 / Fold change vs veh, CACNA2D3 / RFU, DTX4 / Fold change vs veh, DTX4 / RFU, TFCP2 / Fold change vs veh, TFCP2 / RFU, GMCL1 /// GMCL1P1 / Fold change vs veh, GMCL1 /// GMCL1P1 / RFU, AEBP2 / Fold change vs veh, AEBP2 / RFU, SNHG1 /// SNORD22 /// SNORD25 /// SNORD26 /// SNORD27 /// SNORD28 /// SNORD29 /// SNORD31 / Fold change vs veh, SNHG1 /// SNORD22 /// SNORD25 /// SNORD26 /// SNORD27 /// SNORD28 /// SNORD29 /// SNORD31 / Fold change (Aza/veh), C12orf56 (ProbeSet 11735607_a_at) / Fold change (ACY-1035/veh), C12orf56 (ProbeSet 11735607_a_at) / Fold change (Aza/veh), FGFR1OP (ProbeSet 11751329_s_at) / Fold change (ACY-1035/veh), FGFR1OP (ProbeSet 11751329_s_at) / Fold change (Aza/veh), VPS36 (ProbeSet 11739960_a_at) / Fold change (ACY-1035/veh), VPS36 (ProbeSet 11739960_a_at) / RFU SYPL1 (11715823_x_at) / Fold change /veh SYPL1 (11715823_x_at) / RFU IGFBP7 (11715501_s_at) / Fold change /veh IGFBP7 (11715501_s_at) / RFU REEP3 (11722064_at) / Fold change /veh REEP3 (11722064_at) / RFU IGLL1 (11728026_x_at) / Fold change /veh IGLL1 (11728026_x_at): dose or concentration left out as unconfirmed
Conditions: ProbeSet 11755436_x_at; LIST B

Nc1ccc(-c2cccs2)cc1NC(=O)c1ccc2c(c1)cc(C1CC1)n2CCN1CCOCC1 [ACY-1035]
Fold change vs veh, ARID1A: 0.98
